The target in the assay is Signal transducer and activator of transcription 3 (Homo sapiens, UniProt P40763). Put plainly: Inhibition of STAT3 (unknown origin).

The text below walks through data of BindingDB's records for PubMed 38142509 (Sichuan University).

Signal transducer and activator of transcription 3, sequence (P40763 whole entry): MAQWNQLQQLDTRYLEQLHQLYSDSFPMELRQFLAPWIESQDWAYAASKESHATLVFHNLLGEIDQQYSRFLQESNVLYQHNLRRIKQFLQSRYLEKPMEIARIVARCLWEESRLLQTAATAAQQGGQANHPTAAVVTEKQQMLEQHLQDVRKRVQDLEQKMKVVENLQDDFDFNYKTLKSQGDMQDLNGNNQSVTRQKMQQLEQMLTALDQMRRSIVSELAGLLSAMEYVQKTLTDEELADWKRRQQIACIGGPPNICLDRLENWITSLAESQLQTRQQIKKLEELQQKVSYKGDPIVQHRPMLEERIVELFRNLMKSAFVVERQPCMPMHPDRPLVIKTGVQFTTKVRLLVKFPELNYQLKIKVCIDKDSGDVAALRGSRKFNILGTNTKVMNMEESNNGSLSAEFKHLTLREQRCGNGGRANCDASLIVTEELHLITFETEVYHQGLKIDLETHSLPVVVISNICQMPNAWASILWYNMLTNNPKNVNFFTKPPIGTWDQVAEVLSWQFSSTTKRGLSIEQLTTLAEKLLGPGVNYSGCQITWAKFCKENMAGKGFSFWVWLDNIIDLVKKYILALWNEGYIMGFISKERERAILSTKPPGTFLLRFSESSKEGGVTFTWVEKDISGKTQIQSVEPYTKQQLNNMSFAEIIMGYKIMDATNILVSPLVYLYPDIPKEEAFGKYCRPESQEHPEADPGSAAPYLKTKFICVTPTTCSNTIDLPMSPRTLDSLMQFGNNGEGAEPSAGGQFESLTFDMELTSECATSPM

In general, IC50 refers to the concentration at which inhibition is half-maximal. A high value points to lower potency. Regarding `COC(=O)[C@@]12OC[C@]34[C@H]([C@@H](O)[C@@H]1O)[C@@]1(C)CC(=O)C(O)=C(C)[C@@H]1C[C@H]3OC(=O)[C@H](OC(=O)C=C(C)C(C)(C)OC(C)=O)[C@@H]24`, 2.4 nM corresponded to half-maximal inhibition (IC50).
